Test results taken from patent publication US20180164317A1, “METHOD FOR STRATIFICATION OF MELANOMA PATIENTS BY DETERMINATION OF OXYGEN CONSUMPTION, PPARGC1A, PPARGC1B AND MITF LEVELS” (Bayer Pharma Aktiengesellschaft, priority 2015, published 2018).

Assays:
[1] = tested on: A-431; experiment: GI50 determination, cell viability (Alamar Blue or Cell Titer Glo); assay type: cell-based; conditions: Homo sapiens; A-431 cells; cell viability measured at days 3, 5 and 7; triplicate experiments
Description: (§1) COLO-792, SK-MEL-2, SK-MEL-28, IPC-298 and MEL-HO cells were cultured in RPMI media supplemented with 10% heat-inactivated and filtered FCS (hFCS). CHL-1, Hs852.T, G-361, RPMI-7951 and A-431 cells were cultured in DMEM media supplemented with 10% hFCS. HMCB cells were grown in MEM Earle's media containing 10% hFCS, 1 mM NaPyruvate, non-essential amino acids and 1 mM HEPES. Penicillin (at 50 I.U./mL), streptomycin (at 50 μg/mL), and L-glutamine (at 2 mM) or stable glutamine (supplied with the media) were additional ingredients in all culture media. All cells were grown in an incubator at 37° C. with 5% carbon dioxide.
(§2) Cells were counted and distributed to 96-well plates, with 1000-5000 cells per well. Each plate also contained wells with media alone for background measurements. Appropriate dilutions of BAY 123 or JQ1 were made in media in a titration series. When adherent cells were fully attached, media was removed and replaced with media containing BAY 123, JQ1, or DMSO as a control. Alternatively, appropriate volumes of BAY 123, JQ1 or DMSO were added to media using a dispenser (HP D300, Tecan).
(§3) Cell viability was measured at days 3, 5, and 7, with Alamar Blue (LifeTechnologies) staining and fluorescence detection (excitation 530nm, emission 590nm) in a microplate reader. Alternatively, Cell Titer Glo (Promega) was used, followed by luminescence detection. GI50 values were calculated from triplicate experiments using GraphPad prism software, using curves from plots of fluorescence or luminescence intensity vs. BAY 123 or JQ1 concentration in each cell line. […] Cell lines with a GI50 below 600 nM were defined as sensitive to BET inhibition.

[2] = tested on: CHL-1; experiment: as above; assay type: cell-based; conditions: Homo sapiens; CHL-1 cells; cell viability measured at days 3, 5 and 7; triplicate experiments
Description: as §1, §2, §3

[3] = tested on: COLO-792; experiment: as above; assay type: cell-based; conditions: Homo sapiens; COLO-792 cells; cell viability measured at days 3, 5 and 7; triplicate experiments
Description: as §1, §2, §3

[4] = tested on: G-361; experiment: as above; assay type: cell-based; conditions: Homo sapiens; G-361 cells; cell viability measured at days 3, 5 and 7; triplicate experiments
Description: as §1, §2, §3

[5] = tested on: HMCB; experiment: as above; assay type: cell-based; conditions: Homo sapiens; HMCB cells; cell viability measured at days 3, 5 and 7; triplicate experiments
Description: as §1, §2, §3

[6] = tested on: Hs 852.T; experiment: as above; assay type: cell-based; conditions: Homo sapiens; Hs 852.T cells; cell viability measured at days 3, 5 and 7; triplicate experiments
Description: as §1, §2, §3

[7] = tested on: IPC-298; experiment: as above; assay type: cell-based; conditions: Homo sapiens; IPC-298 cells; cell viability measured at days 3, 5 and 7; triplicate experiments
Description: as §1, §2, §3

[8] = tested on: MEL-HO; experiment: as above; assay type: cell-based; conditions: Homo sapiens; MEL-HO cells; cell viability measured at days 3, 5 and 7; triplicate experiments
Description: as §1, §2, §3

[9] = tested on: RPMI-7951; experiment: as above; assay type: cell-based; conditions: Homo sapiens; RPMI-7951 cells; cell viability measured at days 3, 5 and 7; triplicate experiments
Description: as §1, §2, §3

[10] = tested on: SK-MEL-28; experiment: as above; assay type: cell-based; conditions: Homo sapiens; SK-MEL-28 cells; cell viability measured at days 3, 5 and 7; triplicate experiments
Description: as §1, §2, §3

[11] = tested on: SK-MEL-2; experiment: as above; assay type: cell-based; conditions: Homo sapiens; SK-MEL-2 cells; cell viability measured at days 3, 5 and 7; triplicate experiments
Description: as §1, §2, §3

[12] = tested on: COLO-792; experiment: Basal oxygen consumption rate (OCR), XF96 extracellular flux analyzer; assay type: cell-based, human; conditions: COLO-792 cells; FIG. 4
[13] = tested on: CHL-1; experiment: as above; assay type: cell-based, human; conditions: CHL-1 cells; 1 μM, 20 h pre-incubation; FIG. 4
Description: (§4) The OCR in G-361, CHL-1, RPMI-7951 and SK-MEL-2 melanoma cells was measured using the XF96 extracellular flux analyzer (Seahorse Bioscience) under standard conditions and after pre-incubation with 1 μM BAY 123 or JQ1 inhibitor for 20 h. Baseline mitochondrial function and mitochondrial stress response were measured by OCR using the XF Mito Stress Test Kit with an XF96 extracellular flux analyzer (Seahorse Bioscience). […] The drug injection ports of the XF96 Assay Cartridge were loaded with assay reagents at a final concentration of 1 μM oligomycin (ATP synthase inhibitor), 0.5 μM FCCP (ionophore and mitochondrial uncoupler which disrupts proton gradient and ATP synthesis), 1 μM Rotenone (mitochondrial complex I inhibitor) and 1 μM Antimycin A (mitochondrial complex III inhibitor).
(§5) Briefly, cells treated with 1 μM BAY 123 or JQ1 inhibitor for 20 h were seeded in quadruplicate at equal densities (20,000-30,000 cells/well) into XF96 tissue culture plates (Seahorse Bioscience). Cell culture medium was changed 12 hours after cell seeding into unbuffered DMEM (8.3 g/l DMEM [Sigma], 2 mM Glutamax [Invitrogen] 5 mM Glucose [Sigma], 1.85 g/l NaCl [Sigma], adjusted to pH 7.4 with NaOH). Real-time measurements of OCR in […] in culture medium were conducted. OCR was measured over time at baseline and following consecutive injections of 1 μM Oligomycin, 0.5 μM FCCP and a mix of 1 μM Rotenone+1 μM Antimycin A. The basal mitochondrial OCR was calculated. The OCR values were normalized to cell numbers plated. To this end, the cells were stained using Cyquant (Life technologies) and fluorescence measurements were made using a microplate reader with excitation at 485 nm and emission detection at 530 nm [Tecan].

[14] = tested on: G-361; experiment: as above; assay type: cell-based, human; conditions: G-361 cells; 1 μM, 20 h pre-incubation; FIG. 4
Description: as §4, §5

[15] = tested on: SK-MEL-2; experiment: as above; assay type: cell-based, human; conditions: SK-MEL-2 cells; 1 μM, 20 h pre-incubation; FIG. 4
Description: as §4, §5

[16] = tested on: melanoma cell lines (G-361, CHL-1, RPMI-7951, SK-MEL-2); experiment: Basal OCR, marker positive versus negative melanoma cell lines, XF96 analyzer; assay type: cell-based, human; conditions: 1 μM, 20 h treatment
Description: as §4
Briefly, cells treated with 1 μM BAY 123 or JQ1 inhibitor for 20 h were seeded in quadruplicate at equal densities (20,000-30,000 cells/well) into XF96 tissue culture plates (Seahorse Bioscience). […] OCR was measured over time at baseline and following consecutive injections of 1 μM Oligomycin, 0.5 μM FCCP and a mix of 1 μM Rotenone+1 μM Antimycin A. The basal mitochondrial OCR was calculated. […] To this end, the cells were stained using Cyquant (Life technologies) and fluorescence measurements were made using a microplate reader with excitation at 485 nm and emission detection at 530 nm [Tecan].

SMILES | GI50 [1] | GI50 [2] | GI50 [3] | GI50 [4] | GI50 [5] | GI50 [6] | GI50 [7] | GI50 [8] | GI50 [9] | GI50 [10] | GI50 [11] | basal OCR with versus without treatment [12] | basal OCR with versus without treatment [13] | basal OCR with versus without treatment [14] | basal OCR with versus without treatment [15] | decrease of basal OCR in PPARGC1A, PPARGC1B, MITF positive melanoma (G-361, CHL-1) compared to negative melanoma cell lines (RPMI-7951, SK-MEL-2) [16]
Cc1sc2c(c1C)C(c1ccc(Cl)cc1)=NC(CC(=O)OC(C)(C)C)c1nnc(C)n1-2 (racemic) [JQ1, [(R,S)-4-(4-Chlorophenyl)-2,3,9-trimethyl-6H-1-thia-5,7,8,9a-tetraaza-cyclopenta[e]azulen-6-yl]-acetic acid tert-butyl ester] | 720 nM | 60 nM | 50 nM | 240 nM | 330 nM | 7570 nM | 60 nM | 190 nM | 1460 nM | 1760 nM | > 20000 nM | Reduction of basal OCR | Reduction of basal OCR | Reduction of basal OCR | Reduction of basal OCR | decreased more dramatically
CNC(=O)N1N=C(c2ccc(N3CCN(C)CC3)cc2)c2cc(OC)c(OC)cc2C[C@@H]1C [BAY 123, (4S)-7,8-dimethoxy-N,4-dimethyl-1-[4-(4-methylpiperazin-1-yl)phenyl]-4,5-dihydro-3H-2,3-benzodiazepine-3-carboxamide] | 930 nM | 70 nM | 80 nM | 250 nM | 570 nM | 4440 nM | 150 nM | 470 nM | 2180 nM | 1260 nM | > 20000 nM | Reduction of basal OCR | Reduction of basal OCR | Reduction of basal OCR | Reduction of basal OCR | decreased more dramatically
